Measured values: PMC10376064, “ABC Transporter C1 Prevents Dimethyl Fumarate from Targeting Alzheimer’s Disease” (Biology, 2023)

Biological target: T1, ABCC1 (Homo sapiens, UniProt P33527)
T1 construct: membrane preparation of ABCC1-expressing H69AR cells
Experiment: vanadate-sensitive ATPase stimulation in H69AR membranes; daunorubicin and rhodamine […] transport inhibition in H69AR cells
Format: cell-based

T1 sequence (P33527 whole entry): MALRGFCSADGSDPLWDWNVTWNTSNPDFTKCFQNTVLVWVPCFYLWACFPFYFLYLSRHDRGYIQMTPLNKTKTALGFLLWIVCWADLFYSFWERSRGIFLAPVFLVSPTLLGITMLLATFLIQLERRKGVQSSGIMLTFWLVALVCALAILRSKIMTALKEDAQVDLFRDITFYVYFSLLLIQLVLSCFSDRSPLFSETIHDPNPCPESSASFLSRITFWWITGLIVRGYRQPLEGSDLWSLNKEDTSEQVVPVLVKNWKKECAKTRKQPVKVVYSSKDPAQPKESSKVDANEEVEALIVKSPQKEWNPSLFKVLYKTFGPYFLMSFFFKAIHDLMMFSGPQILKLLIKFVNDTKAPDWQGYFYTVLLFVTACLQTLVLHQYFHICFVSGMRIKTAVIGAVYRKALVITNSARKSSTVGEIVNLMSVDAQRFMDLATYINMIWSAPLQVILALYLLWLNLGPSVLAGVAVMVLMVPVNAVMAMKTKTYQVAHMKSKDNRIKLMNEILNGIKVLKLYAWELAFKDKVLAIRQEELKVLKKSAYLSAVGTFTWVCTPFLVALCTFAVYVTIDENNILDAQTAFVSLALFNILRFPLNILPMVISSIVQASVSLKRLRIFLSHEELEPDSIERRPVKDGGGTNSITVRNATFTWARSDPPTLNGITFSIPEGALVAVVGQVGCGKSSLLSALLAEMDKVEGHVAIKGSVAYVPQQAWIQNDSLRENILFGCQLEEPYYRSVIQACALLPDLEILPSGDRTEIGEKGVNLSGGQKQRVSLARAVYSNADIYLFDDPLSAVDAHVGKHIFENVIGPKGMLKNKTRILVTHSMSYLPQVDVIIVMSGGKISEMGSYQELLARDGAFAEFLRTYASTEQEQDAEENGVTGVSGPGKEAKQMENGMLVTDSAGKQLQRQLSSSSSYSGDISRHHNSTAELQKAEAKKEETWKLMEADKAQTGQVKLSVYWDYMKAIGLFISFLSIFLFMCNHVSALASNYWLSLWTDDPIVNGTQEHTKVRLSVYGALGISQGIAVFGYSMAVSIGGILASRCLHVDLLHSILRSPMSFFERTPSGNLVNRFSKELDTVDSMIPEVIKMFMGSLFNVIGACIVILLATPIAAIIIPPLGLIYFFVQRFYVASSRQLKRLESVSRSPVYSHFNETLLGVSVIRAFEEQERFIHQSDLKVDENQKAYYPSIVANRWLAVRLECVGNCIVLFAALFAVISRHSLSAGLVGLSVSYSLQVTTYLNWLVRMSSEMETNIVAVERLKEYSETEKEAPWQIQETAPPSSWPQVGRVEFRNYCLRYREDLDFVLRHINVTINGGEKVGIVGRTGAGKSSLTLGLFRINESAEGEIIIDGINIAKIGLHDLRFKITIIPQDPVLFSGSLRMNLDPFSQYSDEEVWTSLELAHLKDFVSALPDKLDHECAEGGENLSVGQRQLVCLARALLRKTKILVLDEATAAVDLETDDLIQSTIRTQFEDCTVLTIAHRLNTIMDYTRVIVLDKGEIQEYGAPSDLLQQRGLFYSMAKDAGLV

vanadate-sensitive ATPase stimulation in H69AR membranes; daunorubicin and rhoda: ~ 200 µM
SMILES: COC(=O)CC(SC[C@H](NC(=O)CC[C@H](N)C(=O)O)C(=O)NCC(=O)O)C(=O)OC (stereo partly shown) [compound 9, DMS-SG]
